Read-outs that look alike come from different tables or passages of the source.
Key:
Type in all cases: in vivo, human
[1] = JACKPOT3 SAD urinary PK (100 mg); settings: single dose 100 mg
Protocol: After single oral administration, serial blood samples were obtained on Day 1 at pre-dose, and at 0.5, 1, 1.5, 2, 3, 4, 6, 8, 12, 24 (Day 2), 48 (Day 3), 72 (Day 4), 120 (Day 6), 168 (Day 8) and 216 (Day 10) hours post-dose for plasma PK analysis. Urine samples were collected during the collection intervals of 0-4, 4-10, 10-24, 24-48, 48-72, 72-96, 96-120, 120-144, and 144-168 hours following a single oral dose of 100 mg for urine PK analysis. Validated LC/MS methods were used for the determination of golidocitinib in human plasma and urine by Frontage Laboratories Inc. (Shanghai). This method was cross validated by Frontage Laboratories Inc. (New Jersey, USA) and met the acceptance criteria.
The mean (SD) amount of golidocitinib excreted in the urine over the collection period and renal clearance are presented in Table 2B . The average amount of golidocitinib excreted in the urine increased in an approximately dose proportional manner from 25 mg to 100 mg. […] The renal excretion fraction (Fe0-t) is helpful to compare the renal clearance (CLr) with total clearance (CLtotal) and determine the contribution of renal clearance in the drug elimination. It was calculated by the equation Fe0-t = CLr/CLtotal. The CL/F values were obtained from the two Phase I studies after the oral administration. Since the pharmacokinetics of golidocitinib after intravenous injection was not studied, the bioavailability value (F) was calculated by physiologically based pharmacokinetic (PBPK) model that incorporated compound specific information and independent prior knowledge on the physiology and biology at the organism.

[2] = Pooled JACKPOT2/JACKPOT3 SAD analysis of the effect of race on PK; settings: for Dose normalized AUC0-inf, GLS Mean / Dose normalized AUC0-t, GLS Mean / Dose normalized Cmax, GLS Mean: ANCOVA; for Vd/F / half-life: human, plasma, oral
Protocol: Assessment of inter-ethnic difference of golidocitinib PK: The primary analyses of AUC0–t, AUC0–inf, and Cmax (log-transformed dose-normalized PK parameters) were performed using an analysis of covariance (ANCOVA) model, with the ethnic group as a fixed effect and dose (log scale) as a covariate. The analysis of variance (ANOVA) model was built for the secondary PK endpoints (log-transformed CL/F, Vz/F, and t1/2) with the ethnic group as a fixed effect. The Black/Caucasian and Asian/Caucasian ratios of the geometric mean were calculated by taking the antilogarithm of the difference between group means and corresponding 90% confidence intervals (CIs) in the log scale. Other analyses are descriptive, and no formal statistical comparison is performed for pooled JACKPOT2 and JACKPOT3 data. As the study design of SAD cohorts in JACKPOT2 and JACKPOT3 studies was similar, pooled analysis was performed. The race factor is the focus potentially used for the exposure comparison. A total of 62 participants were included in the analysis (11 Caucasians, 19 Blacks and 32 Asians).

[3] = JACKPOT2 food effect cohort (50 mg, fasted vs high-fat meal); settings: for AUC0-inf, Geometric Mean Ratio (90% CI) (Test vs Reference) / AUC0-t, Geometric Mean Ratio (90% CI) (Test vs Reference) / Cmax, Geometric Mean Ratio (90% CI) (Test vs Reference) / AUC(0-inf) / AUC(0-t) / Cmax: 50 mg; for AUC0-inf, Geometric Mean Ratio (90% CI) (Test vs Reference) / AUC0-t, Geometric Mean Ratio (90% CI) (Test vs Reference) / Cmax, Geometric Mean Ratio (90% CI) (Test vs Reference): fed versus fasted, percent ratio of geometric least square means; for AUC(0-inf): read-out: AUC0-inf, Geometric mean (%CV); for AUC(0-t): read-out: AUC0-t, Geometric mean (%CV); for Cmax: read-out: Cmax, Geometric mean (%CV)
Protocol: A total of 42 and 24 healthy participants were enrolled in part A and part B, respectively. In part A, a total of 30 participants were randomized into 5 SAD cohorts (n = 6 per cohort) and received a single dose of golidocitinib at different dose levels or a matching placebo in a 4:2 ratio. In the food effect cohort, a total of 12 participants were enrolled and received the study drug under fasted or fed conditions, with a sequential design. The 50 mg dose was selected based on available safety data after the completion of the SAD cohorts, and also on the outcomes from PK/PD modeling for potential efficacious dose for autoimmune disease. On Day 1, participants took a single dose of golidocitinib under fast condition. After a 14-day wash-out period, on Day 15, participants received another single dose of golidocitinib immediately after a standard high-fat meal. Food recipes and contents are consistent with that described in FDA Guidance for Food-Effect Bioavailability studies ([10]). For the fed condition, keeping fasted for at least 10 hours, participants started ingestion of high-fat meal 30 minutes prior to administration of golidocitinib. They had to finish the meal within 30 minutes or less, and no food was allowed for at least 4 hours post-dose. In part B, a total of 24 participants were randomized into 3 MAD cohorts, with 8 in each cohort (active:placebo = 6:2). In these cohorts, participants received golidocitinib at different dose levels or placebo once daily dosing for 14 days. Dose escalation was based on available PK and safety data in the previous cohorts.
For food effect assessment, log-transformed PK parameters (AUC0-t, AUC0-inf, and Cmax) of golidocitinib were analyzed using a mixed-effect model including terms for study treatment (fasted and fed) as fixed effects, and participants nested within treatment as a random effect. The CIs on the ratios of untransformed PK parameters were derived through a reverse transformation of the 90% CIs for the differences of the means in the log scale from the mixed-effect model. Least-squares geometric means, a ratio of the geometric means and 90% CIs on the ratio of fed to fasted were presented.

[4] = human, plasma, oral, 50 mg single dose, Fasted (Reference), N = 12
[5] = human, plasma, oral, 50 mg single dose, High-fat meal (Test), N = 11

SMILES: COc1nn(C)cc1Nc1nccc(-c2c[nH]c3c(NC(=O)[C@@H](C)N4CCN(C)CC4)cccc23)n1 [golidocitinib, (2R)-N-[3-[2-[(3-Methoxy-1-methyl-pyrazol-4-yl)amino]pyrimidin-4-yl]-1H-indol-7-yl]-2-(4-methylpiperazin-1-yl)propenamide]
- CL renal ([1]; human, urine and plasma, oral, Ae0-t/AUC0-t, mean (SD)): 67.8 mL/min
- CLtotal ([1]; CL/F * F (0.7 from PBPK model)): 15.0 L/h
- Fe0-t ([1]; CLr/CLtotal): 27.2%
- Ae0-t ([1]; urine 0-168 hour, mean (SD)): 19.5 (6.22) mg
- CL/F, Geometric Mean (CV%) ([2]; Asian, n 24, single dose): 20.07 (21.59) L/hr
- Dose normalized AUC0-inf, Geometric Mean (CV%) ([2]; Asian, n 24, single dose): 49.82 (21.63) hr*ng/mL/mg
- Dose normalized AUC0-t, Geometric Mean (CV%) ([2]; Asian, n 24, single dose): 48.15 (23.34) hr*ng/mL/mg
- Dose normalized Cmax, Geometric Mean (CV%) ([2]; Asian, n 24, single dose): 1.70 (24.14) ng/mL/mg
- Dose normalized AUC0-inf, GLS Mean ([2]; Asian, single dose): 49.76 ng·h/mL/mg
- Dose normalized AUC0-t, GLS Mean ([2]; Asian, single dose): 47.50 ng·h/mL/mg
- Dose normalized Cmax, GLS Mean ([2]; Asian, single dose): 1.66 ng/mL/mg
- CL/F, GLS Mean ([2]; Asian, single dose, ANOVA): 20.07 L/h
- CL/F, Ratio of GLS means ([2]; Asian/Caucasian): 0.88
- Dose normalized AUC0-inf, Ratio of GLS means ([2]; Asian/Caucasian): 1.2
- Dose normalized AUC0-t, Ratio of GLS means ([2]; Asian/Caucasian): 1.1
- Dose normalized Cmax, Ratio of GLS means ([2]; Asian/Caucasian): 1.4
- Vz/F, Ratio of GLS means ([2]; Asian/Caucasian): 0.76
- t1/2, Ratio of GLS means ([2]; Asian/Caucasian): 0.87
- Dose normalized AUC0-inf, Geometric Mean (CV%) ([2]; Black, n 10 (5 mg group not included), single dose): 51.54 (22.55) hr*ng/mL/mg
- CL/F, Geometric Mean (CV%) ([2]; Black, n 10, single dose): 19.40 (22.55) L/hr
- Dose normalized AUC0-t, Geometric Mean (CV%) ([2]; Black, n 13, single dose): 46.51 (23.98) hr*ng/mL/mg
- Dose normalized Cmax, Geometric Mean (CV%) ([2]; Black, n 13, single dose): 1.12 (26.07) ng/mL/mg
- Dose normalized AUC0-inf, GLS Mean ([2]; Black, single dose): 52.05 ng·h/mL/mg
- Dose normalized AUC0-t, GLS Mean ([2]; Black, single dose): 47.72 ng·h/mL/mg
- Dose normalized Cmax, GLS Mean ([2]; Black, single dose): 1.19 ng/mL/mg
- CL/F, GLS Mean ([2]; Black, single dose, ANOVA): 19.40 L/h
- CL/F, Ratio of GLS means ([2]; Black/Caucasian): 0.85
- Dose normalized AUC0-inf, Ratio of GLS means ([2]; Black/Caucasian): 1.2
- Dose normalized AUC0-t, Ratio of GLS means ([2]; Black/Caucasian): 1.1
- Dose normalized Cmax, Ratio of GLS means ([2]; Black/Caucasian): 1.0
- Vz/F, Ratio of GLS means ([2]; Black/Caucasian): 1.1
- t1/2, Ratio of GLS means ([2]; Black/Caucasian): 1.3
- Dose normalized AUC0-inf, Geometric Mean (CV%) ([2]; Caucasian, n 6 (5 mg group not included), single dose): 43.62 (23.48) hr*ng/mL/mg
- CL/F, Geometric Mean (CV%) ([2]; Caucasian, n 6, single dose): 22.92 (23.48) L/hr
- Dose normalized AUC0-t, Geometric Mean (CV%) ([2]; Caucasian, n 7, single dose): 42.59 (28.57) hr*ng/mL/mg
- Dose normalized Cmax, Geometric Mean (CV%) ([2]; Caucasian, n 7, single dose): 1.17 (30.17) ng/mL/mg
- Dose normalized AUC0-inf, GLS Mean ([2]; Caucasian, single dose): 43.13 ng·h/mL/mg
- Dose normalized AUC0-t, GLS Mean ([2]; Caucasian, single dose): 42.52 ng·h/mL/mg
- Dose normalized Cmax, GLS Mean ([2]; Caucasian, single dose): 1.16 ng/mL/mg
- CL/F, GLS Mean ([2]; Caucasian, single dose, ANOVA): 22.92 L/h
- Vd/F ([2]; Asian, n 24, single dose, read-out: Vz/F, Geometric Mean (CV%)): 1020 L
- half-life ([2]; Asian, n 24, single dose, read-out: t1/2, Geometric Mean (CV%) (converted)): 35.4 h
- Vd/F ([2]; Asian, single dose, ANOVA, read-out: Vz/F, GLS Mean): 1020 L
- half-life ([2]; Asian, single dose, ANOVA, read-out: t1/2, GLS Mean (converted)): 35.4 h
- Vd/F ([2]; Black, n 10, single dose, read-out: Vz/F, Geometric Mean (CV%)): 1420 L
- half-life ([2]; Black, n 10, single dose, read-out: t1/2, Geometric Mean (CV%) (converted)): 50.9 h
- Vd/F ([2]; Black, single dose, ANOVA, read-out: Vz/F, GLS Mean): 1420 L
- half-life ([2]; Black, single dose, ANOVA, read-out: t1/2, GLS Mean (converted)): 50.9 h
- Vd/F ([2]; Caucasian, n 6, single dose, read-out: Vz/F, Geometric Mean (CV%)): 1350 L
- half-life ([2]; Caucasian, n 6, single dose, read-out: t1/2, Geometric Mean (CV%) (converted)): 40.8 h
- Vd/F ([2]; Caucasian, single dose, ANOVA, read-out: Vz/F, GLS Mean): 1350 L
- half-life ([2]; Caucasian, single dose, ANOVA, read-out: t1/2, GLS Mean (converted)): 40.8 h
- tmax, Median (range) ([3]; 50 mg single dose, High-fat meal (Test), N = 11): 6.00 (4.00, 14.0) hour
- AUC0-inf, Geometric Mean Ratio (90% CI) (Test vs Reference) [3]: 116.5 (111.2, 122.0) %
- AUC0-t, Geometric Mean Ratio (90% CI) (Test vs Reference) [3]: 115.0 (109.3, 121.0) %
- Cmax, Geometric Mean Ratio (90% CI) (Test vs Reference) [3]: 108.9 (97.81, 121.2) %
- AUC0-inf, Geometric Mean Ratio (90% CI) (Test vs Reference) ([3]; listed as Golidocitinib): 116.5 (111.2-122.0) %
- AUC0-t, Geometric Mean Ratio (90% CI) (Test vs Reference) ([3]; listed as Golidocitinib): 115.0 (109.3-121.0) %
- Cmax, Geometric Mean Ratio (90% CI) (Test vs Reference) ([3]; listed as Golidocitinib): 108.9 (97.81-121.2) %
- AUC(0-inf) [3, 4]: 2960 ng·h/mL
- AUC(0-t) [3, 4]: 2770 ng·h/mL
- Cmax [3, 4]: 68.8 ng/mL
- AUC(0-inf) [3, 5]: 3400 ng·h/mL
- AUC(0-t) [3, 5]: 3230 ng·h/mL
- Cmax [3, 5]: 73.7 ng/mL
- Tmax ([3]; human, plasma, oral, 50 mg single dose, Fasted (Reference), N = 12, read-out: tmax, Median (range)): 6 h
